pIC50: −log10 of the molar value.
Legend:
MDA-MB-436 cells = test: Proliferation assay MDA-MB-436, negative control cell line (Alamar Blue, 144 h); type: cell-based; settings: arithmetic mean
Description: (§1) Proliferation Assays for Compound Characterization
(§2) For compound characterization cell survival assays were routinely run in two cell lines. ZR-75-1 is a breast carcinoma cell line containing a focal KAT6A amplification and high KAT6A protein expression. Proliferation of this cell line is inhibited upon treatment with KAT6A inhibitors. As a negative control cell line MDA-MB-436 were used. These cells carry a […] deletion of the KAT6A gene, have a low KAT6A protein expression and are not growth inhibited upon treatment with KAT6A inhibitors.
(§3) For measurements cell lines were plated at the below indicated concentration per […] in 96-well plates in a humidified incubator at 37° C. and 5% CO2.
MDA-MB-436 (CLS, 300278; breast adenocarcinoma); 3000 cells per well; culture medium: DMEM/Ham's F12 (Biochrom #FG 4815) medium containing 2.5% FBS (Biochrom #S0615).
(§4) 24 hours later, cells were treated with compounds (stock solution, 10 mM in DMSO) using the HP D300 Digital Dispenser in a concentration range of 2.0×10E-5 M to 2.0×10E-9 M in a single-dot curve with 9 dilutions and a DMSO concentration of 0.2%. Each sample was prepared as triplicate and rim wells were excluded. Plates were incubated at 37° C. and 5% CO2 for 144 h. Cell viability was measured by adding 10 μL of Alamar Blue Reagent (Invitrogen #DAL 1100) and plates were incubated for 2 h at 37° C. and 5% CO2. Fluorescence was measured at 590 nm wavelength with a Tecan Spark or Victor X3 MTP-Reader (PerkinElmer).

[1] = system: ESR1 transcription (luciferase signal in MVLN cells); test: Repression of ESR1 transcription, luciferase reporter in MVLN cells; type: cell-based; settings: inhibition of luciferase signal in MVLN cells, arithmetic mean
Description: Repression of ESR1 Transcription Upon Treatment of Cells with Compounds
KAT6A controls transcription of the ESR1 gene in breast cancer cells. Compound treatment that interferes with this mechanism was quantified using MVLN cells. These cells constitutively express the ER and are stably transfected with the luciferase (LUC) reporter gene and the corresponding hormone responsive element derived from the 5′-flanking region of the Xenopus Vitellogenin A2 gene (Pons et al., 1990, Demirpense et al., 1993, Joyeux et al., 1993). The repressive effect on ERα transcription activity of a test chemical is directly related to the luciferase measured in the lysate of treated MVLN cells.
Each sample was prepared as duplicate and rim wells were excluded. For luciferase signal determination 100 μl of a 1:1 mixture of Steadylite plus (Perkin Elmer; 6016759) and assay medium was added after 24 h for 15 minutes and measured in Victor X3 (Perkin Elmer). To exclude any effects caused by cell loss during the treatment, cell density was determined using Alamar Blue (Invitrogen; DAL1100). Prior to the luciferase measurement 10 μl Alamar Blue were added to each well and the plates were incubated for 2 h in the incubator. Then fluorescence was measured with Victor X3 (Perkin Elmer) at 530 nm/590 nm.

[2] = target: Recombinant human His-tagged Kat6a protein (amino acids 194-810) (Homo sapiens (Human), UniProt Q92794); test: Kat6a activity assay (TR-FRET, acetylation of biotinylated Histone-H4-derived peptide); type: biochemical; settings: 60 mins at 22° C., read-out: KAT6A-DPF/HAT domain IC50 [mol/l] (arithmetic mean)
Description: Kat6a inhibitory activities of the compounds described in the present invention were quantified using a Fluorescence Resonance Energy Transfer (TR-FRET) assay which measures acetylation of a synthetic, biotinylated Histone-H4-derived peptide by the enzyme.
Recombinant human His-tagged Kat6a protein (amino acids 194-810), was purified in-house from Baculovirus-infected insect cells (Sf9). Histone H4 peptide (amino acids 1-24, […]-VLRD-K(Btn)-amide), which was used as substrate, was synthesized by Biosyntan GmbH, Berlin, Germany. Acetyl Coenzyme A was purchased from Sigma-Aldrich (#A-2056).
Kat6a was incubated for 60 mins at 22° C. in the presence of different concentrations of test substances (0 μM, and within the range 0.01-20 μM) in assay buffer [25 mM Tris/HCl pH 8, 1 mM EGTA, 2.5 mM Glutathion, 0.02% Chicken Albumin, 0.05% Pluronic F127, 25 mM NaCl, 220 nM H4 peptide and 600 nM Acetyl Coenzym A].
The reaction was stopped by addition of Detection Solution (25 mM HEPES pH 7.5, 0.1% BSA, 22 nM SAXL665 (Cisbio #610SAXLE), 100 μM Anacardic Acid (Enzo #ALX-270-381), 1 nM Anti-Histone H4 (ACETYL K8) Antibody (ABCAM #AB15823) and 0.5 nM Anti-Rabbit IgG Eu (Perkin Elmer #AD0083).
The fluorescence emission at 620 nm and 665 nm after excitation at 330-350 nm was measured in a TR-FRET measuring instrument, for instance a Rubystar or a Pherastar (both from BMG Lab Technologies, Offenburg, Germany) or a Viewlux (Perkin-Elmer). The ratio of the emission at 665 nm and at […] was used as indicator of the amount of acetylated peptide.
The resulting data (ratio) were normalized, taking 0% inhibition as the mean value of control measurements where all reagents were included. In this case 50 nl DMSO were used instead of compounds. […] IC50 values were determined by regression analysis based on a 4 parameter equation (minimum, maximum, ICM, Hill; Y=Max+(Min−Max)/(1+(X/ICso) Hill) using the Screener Software (Genedata).
Table 5 depicts the IC50 values of selected examples in biochemical KAT6A and KAT6B3 assays.

ZR-75-1 cells = test: Proliferation assay ZR-75-1 (Alamar Blue, 144 h); type: cell-based; settings: Homo sapiens, ZR-75-1, 144 h, arithmetic mean, read-out: ZR75-1 proliferation assay, EC50 [M] (arithmetic mean)
Description: as §1, §2, §3
ZR-75-1 (ATCC, CRL-1500; breast carcinoma); 3000 cells per well; culture medium: RPMI 1640 (Biochrom #FG 1215) medium containing 2.5% FBS (Biochrom #S0615).
as §4

[3] = Homo sapiens, MDA-MB-436, 144 h

Recombinant human His-tagged Kat6a protein (amino acids 194-810), sequence (Q92794 194-810): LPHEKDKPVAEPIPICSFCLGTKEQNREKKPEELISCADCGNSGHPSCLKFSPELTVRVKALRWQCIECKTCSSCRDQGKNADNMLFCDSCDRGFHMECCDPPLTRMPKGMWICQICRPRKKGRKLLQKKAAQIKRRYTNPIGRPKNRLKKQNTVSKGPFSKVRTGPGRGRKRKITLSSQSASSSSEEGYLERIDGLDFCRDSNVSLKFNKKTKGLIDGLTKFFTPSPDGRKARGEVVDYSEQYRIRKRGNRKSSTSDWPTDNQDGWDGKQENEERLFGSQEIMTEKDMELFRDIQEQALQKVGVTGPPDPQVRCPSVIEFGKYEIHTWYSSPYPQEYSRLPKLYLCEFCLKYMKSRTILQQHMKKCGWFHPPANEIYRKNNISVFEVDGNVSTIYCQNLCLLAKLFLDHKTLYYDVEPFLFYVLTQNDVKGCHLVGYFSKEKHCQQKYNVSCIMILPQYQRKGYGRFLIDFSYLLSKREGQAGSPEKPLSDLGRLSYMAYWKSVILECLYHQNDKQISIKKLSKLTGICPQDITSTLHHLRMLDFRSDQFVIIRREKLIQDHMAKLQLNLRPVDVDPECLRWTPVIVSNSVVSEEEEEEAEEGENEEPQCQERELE

SMILES: C[C@H](Oc1cccc(OC2CCC2)c1S(=O)(=O)NC(=O)c1cc2ccc(N(C)C)cc2o1)C(F)(F)F (single isomer, unassigned) [Example 221]
- EC50 (MDA-MB-436 cells): 8.25 µM
- IC50 [1]: 0.582 µM
- pIC50 [2]: 7.35

SMILES: C[C@@H](Oc1cccc(OC2CCC2)c1S(=O)(=O)NC(=O)c1cc2ccc(N(C)C)cc2o1)C(F)(F)F (single isomer, unassigned) [Example 222]
- EC50 (MDA-MB-436 cells): > 20 µM
- IC50 [1]: 0.595 µM
- pIC50 [2]: 7.51

SMILES: CCN(C)c1ccc2cc(C(=O)NS(=O)(=O)c3ccc(Cl)cc3Cl)oc2c1 [Example 3, N-(2,4-Dichlorophenyl)sulfonyl-6-[ethyl(methyl)amino]benzofuran-2-carboxamide]
- EC50 (MDA-MB-436 cells; [3]): > 20 µM
- IC50 ([1]; Homo sapiens, MVLN): 4.28 µM
- EC50 (ZR-75-1 cells): 2e-05 M

SMILES: CN(c1ccccc1)c1ccc2cc(C(=O)NS(=O)(=O)c3ccc(Cl)cc3Cl)oc2c1 [Example 9, N-(2,4-Dichlorophenyl)sulfonyl-6-(N-methylanilino)benzofuran-2-carboxamide]
- EC50 (MDA-MB-436 cells; [3]): > 20 µM
- IC50 ([1]; Homo sapiens, MVLN): > 20 µM
- EC50 (ZR-75-1 cells): > 2e-05 M

SMILES: CCCN(C)c1ccc2cc(C(=O)NS(=O)(=O)c3ccccc3-c3ccccc3)oc2c1 [Example 37, N-([1,1′-Biphenyl]-2-sulfonyl)-6-[methyl(propyl)amino]-1-benzofuran-2-carboxamide]
- EC50 (MDA-MB-436 cells; [3]): > 20 µM
- IC50 ([1]; Homo sapiens, MVLN): 14 µM
- EC50 (ZR-75-1 cells): > 2e-05 M

SMILES: COCCN(C)c1ccc2cc(C(=O)NS(=O)(=O)c3ccccc3-c3ccccc3)oc2c1 [Example 39, N-([1,1′-Biphenyl]-2-sulfonyl)-6-[(2-methoxyethyl)(methyl)amino]-1-benzofuran-2-carboxamide]
- EC50 (MDA-MB-436 cells; [3]): > 20 µM
- IC50 ([1]; Homo sapiens, MVLN): 0.1 µM
- EC50 (ZR-75-1 cells): 3.41e-08 M

SMILES: CN(c1ccc2cc(C(=O)NS(=O)(=O)c3ccccc3-c3ccccc3)oc2c1)C1CCCC1 [Example 46, N-([1,1′-Biphenyl]-2-sulfonyl)-6-[cyclopentyl(methyl)amino]-1-benzofuran-2-carboxamide]
- EC50 (MDA-MB-436 cells; [3]): > 20 µM
- IC50 ([1]; Homo sapiens, MVLN): > 20 µM
- EC50 (ZR-75-1 cells): > 2e-05 M

SMILES: CN(C)c1ccc2cc(C(=O)NS(=O)(=O)c3ccccc3-c3ccc(CO)cc3)oc2c1 [Example 51, 6-(Dimethylamino)-N-[4′-(hydroxymethyl)[1,1′-biphenyl]-2-sulfonyl]-1-benzofuran-2-carboxamide]
- EC50 (MDA-MB-436 cells; [3]): > 20 µM
- EC50 (ZR-75-1 cells): 1.01e-07 M

SMILES: CCCc1ccccc1S(=O)(=O)NC(=O)c1cc2ccc(N(C)C)cc2o1 [Example 52, 6-(Dimethylamino)-N-(2-propylbenzene-1-sulfonyl)-1-benzofuran-2-carboxamide]
- EC50 (MDA-MB-436 cells; [3]): > 20 µM
- EC50 (ZR-75-1 cells): 1.94e-07 M

SMILES: COc1cc(C#N)ccc1S(=O)(=O)NC(=O)c1cc2ccc(N(C)C)cc2o1 [Example 53, N-(4-Cyano-2-methoxybenzene-1-sulfonyl)-6-(dimethylamino)-1-benzofuran-2-carboxamide]
- EC50 (MDA-MB-436 cells; [3]): > 20 µM
- pIC50 [2]: 6.36
- EC50 (ZR-75-1 cells): 2.64e-07 M

SMILES: O=C(NS(=O)(=O)c1ccccc1-c1ccccc1)c1cc2ccc(N3CCCC3=O)cc2o1 [Example 62, N-([1,1′-Biphenyl]-2-sulfonyl)-6-(2-oxopyrrolidin-1-yl)-1-benzofuran-2-carboxamide]
- EC50 (MDA-MB-436 cells; [3]): 11.4 µM
- IC50 ([1]; Homo sapiens, MVLN): 3.07 µM
- EC50 (ZR-75-1 cells): 1.09e-06 M

SMILES: CCc1ccc2nc(C)c(S(=O)(=O)NC(=O)c3cc4ccc(N(C)C)cc4o3)n2n1 [Example 94, 6-(Dimethylamino)-N-(6-ethyl-2-methylimidazo[1,2-b]pyridazine-3-sulfonyl)-1-benzofuran-2-carboxamide]
- EC50 (MDA-MB-436 cells; [3]): > 20 µM
- IC50 ([1]; Homo sapiens, MVLN): 0.46 µM
- pIC50 [2]: 6.54

SMILES: CN(C)c1ccc2cc(C(=O)NS(=O)(=O)c3c(Cl)cccc3Cl)oc2c1 [Example 98, N-(2,6-Dichlorobenzene-1-sulfonyl)-(dimethylamino)-1-benzofuran-2-carboxamide]
- EC50 (MDA-MB-436 cells; [3]): > 20 µM
- IC50 ([1]; Homo sapiens, MVLN): 0.603 µM
- EC50 (ZR-75-1 cells): 8.17e-07 M

SMILES: CN(C)c1ccc2cc(C(=O)NS(=O)(=O)Cc3ccccn3)oc2c1 [Example 106, 6-(Dimethylamino)-N-[(pyridin-2-yl)methanesulfonyl]-1-benzofuran-2-carboxamide]
- EC50 (MDA-MB-436 cells; [3]): > 20 µM
- IC50 ([1]; Homo sapiens, MVLN): > 20 µM
- pIC50 [2]: 5.49

SMILES: CN(C)c1ccc2cc(C(=O)NS(=O)(=O)c3cc(Cl)cc4cccnc34)oc2c1 [Example 124, N-(6-Chloroquinolone-8-sulfonyl)-6-(dimethylamino)-1-benzofuran-2-carboxamide]
- EC50 (MDA-MB-436 cells; [3]): > 20 µM
- IC50 ([1]; Homo sapiens, MVLN): 0.254 µM

SMILES: CC(C)c1ccc(C(C)C)c(S(=O)(=O)NC(=O)c2cc3ccc(N(C)C)cc3o2)c1 [Example 162]
- IC50 ([1]; Homo sapiens, MVLN): 2.55 µM
- pIC50 [2]: 6.44
- EC50 (ZR-75-1 cells): > 2e-05 M

SMILES: CC(O)c1ccc(Cl)c(S(=O)(=O)NC(=O)c2cc3ccc(N(C)C)cc3o2)c1 (stereo not drawn) [Example 163]
- IC50 ([1]; Homo sapiens, MVLN): > 20 µM
- pIC50 [2]: 5.36
- EC50 (ZR-75-1 cells): 9.38e-07 M

SMILES: COCCOc1ccc(Cl)c(S(=O)(=O)NC(=O)c2cc3ccc(N(C)C)cc3o2)c1 [Example 164]
- IC50 ([1]; Homo sapiens, MVLN): > 20 µM
- pIC50 [2]: 5.35
- EC50 (ZR-75-1 cells): > 2e-05 M

SMILES: CN(C)c1ccc2cc(C(=O)NS(=O)(=O)c3cc(C(F)(F)F)ccc3NCC(F)F)oc2c1 [Example 165]
- IC50 ([1]; Homo sapiens, MVLN): 5.77 µM
- pIC50 [2]: 5.89
- EC50 (ZR-75-1 cells): 9.21e-06 M

SMILES: CCOc1ccccc1S(=O)(=O)NC(=O)c1cc2cc(C(F)(F)F)c(N(C)C)cc2o1 [Example 201, 6-(Dimethylamino)-N-(2-ethoxybenzene-1-sulfonyl)-5-(trifluoromethyl)-1-benzofuran-2-carboxamide]
- IC50 ([1]; Homo sapiens, MVLN): 4.23 µM
- pIC50 [2]: 6.86
- EC50 (ZR-75-1 cells): 2.9e-06 M

SMILES: CN(C)c1c(Br)cc2cc(C(=O)NS(=O)(=O)c3ccccc3-c3ccccc3)oc2c1F [Example 206, N-([1,1′-Biphenyl]-2-sulfonyl)-5-bromo-6-(dimethylamino)-7-fluoro-1-benzofuran-2-carboxamide]
- EC50 (MDA-MB-436 cells; [3]): > 20 µM
- IC50 ([1]; Homo sapiens, MVLN): 9.5 µM
- EC50 (ZR-75-1 cells): > 2e-05 M

SMILES: CN(C)c1ccc2cc(C(=O)NS(=O)(=O)c3ccccc3-c3ccccc3)n(C)c2c1 [Example 210, N-([1,1′-Biphenyl]-2-sulfonyl)-6-(dimethylamino)-1-methyl-1H-indole-2-carboxamide]
- IC50 ([1]; Homo sapiens, MVLN): 11.3 µM
- pIC50 [2]: 5.18
- EC50 (ZR-75-1 cells): > 2e-05 M
